Common to all, as to type: functional
For experiment [1], the system named is Staphylococcus epidermidis. Nature of the experiment: Antibacterial activity against Staphylococcus epidermidis ATCC 12228 after 20 to 22 hr by agar dilution method.
Experiment [2] has as its system Bacillus subtilis. Put plainly: Antibacterial activity against Bacillus subtilis ATCC 6633 after 20 to 22 hr by agar dilution method.
Experiment [3] concerns Bacillus cereus. Nature of the experiment: Antibacterial activity against Bacillus cereus ATCC 11778 after 20 to 22 hr by agar dilution method. On the technique in general: Agar dilution tests growth on a series of plates holding different concentrations.
The test system of experiment [4] is Staphylococcus aureus. Put plainly: Antibacterial activity against Staphylococcus aureus ATCC 25923 after 20 to 22 hr by agar dilution method.
Experiment [5] relates to Micrococcus. Put plainly: Antibacterial activity against Micrococcus […] ATCC 9341 after 20 to 22 hr by agar dilution method.
Experiment [6] deals with Proteus vulgaris. Nature of the experiment: Antibacterial activity against Proteus vulgaris ATCC 13315 after 20 to 22 hr by agar dilution method.
The test system of experiment [7] is Bordetella bronchiseptica. Nature of the experiment: Antibacterial activity against Bordetella bronchiseptica ATCC 4617 after 20 to 22 hr by agar dilution method.

Values after ≈ are worked out from the molar mass of the structure shown.

Broadly, the MIC is the lowest concentration that inhibits growth of the organism.

In the case of `C=C1CC(Cn2nc(C)c(=O)n(CC3(c4ccc(F)cc4)CC(=C)C(=O)O3)c2=O)(c2ccc(F)cc2)OC1=O` (stereo unspecified), the minimum inhibitory concentration (MIC) in experiment [1] was more than 100 µg/mL; in experiment [2], more than 100 µg/mL; in experiment [3] it was 25 µg/mL (≈ 46.7 µM); in experiment [4] it was more than 100 µg/mL; in experiment [5], 25 µg/mL (≈ 46.7 µM); in experiment [6] it was more than 100 µg/mL. Also, in experiment [7], the minimal inhibitory concentration (MIC) was more than 100 µg/mL.
Take `C=C1CC(Cn2nc(C)c(=O)n(CC3(c4ccccc4)CC(=C)C(=O)O3)c2=O)(c2ccccc2)OC1=O` (stereo unspecified): the MIC in experiment [1], in experiment [2], in experiment [3], in experiment [4], in experiment [5] and in experiment [6] was more than 100 µg/mL each time. Besides, the MIC in experiment [7] is more than 100 µg/mL.
Take `O=c1cn[nH]c(=O)[nH]1` [6-AZAURACIL]: the minimum inhibitory concentration (MIC) in experiment [1], in experiment [2], in experiment [3], in experiment [4], in experiment [5] and in experiment [6] was more than 100 µg/mL in each case. The minimum inhibitory concentration (MIC) in experiment [7] was more than 100 µg/mL.
With `C=C1CC(Cn2ncc(=O)n(CC3(c4ccccc4)CC(=C)C(=O)O3)c2=O)(c2ccccc2)OC1=O` (stereo unspecified), the MIC in experiment [1], in experiment [2], in experiment [3], in experiment [4], in experiment [5] and in experiment [6] was more than 100 µg/mL each time. In experiment [7], this compound displayed an MIC of more than 100 µg/mL.
For the compound `C=C1CC(Cn2nc(C)c(=O)[nH]c2=O)(c2ccc(-c3ccccc3)cc2)OC1=O` (stereo unspecified), the minimum inhibitory concentration (MIC) in experiment [1] was 25 µg/mL (≈ 64.2 µM); in experiment [2] it was 25 µg/mL (≈ 64.2 µM); in experiment [3] it was more than 100 µg/mL; in experiment [4], more than 100 µg/mL; in experiment [5] it was more than 100 µg/mL; in experiment [6], more than 100 µg/mL. This compound also showed an MIC in experiment [7] of 50 µg/mL (≈ 128 µM).
In the case of `C=C1CC(Cn2nc(C)c(=O)[nH]c2=O)(c2ccc(F)cc2)OC1=O` (stereo unspecified), the MIC in experiment [1] was more than 100 µg/mL; in experiment [2], more than 100 µg/mL; in experiment [3] it was 50 µg/mL (≈ 151 µM); in experiment [4], more than 100 µg/mL; in experiment [5], more than 100 µg/mL; in experiment [6], more than 100 µg/mL. This compound registered a minimum inhibitory concentration (MIC) in experiment [7] of more than 100 µg/mL.
As for `C=C1CC(Cn2ncc(=O)[nH]c2=O)(c2ccc(F)cc2)OC1=O` (stereo unspecified), the minimum inhibitory concentration (MIC) in experiment [1] was more than 100 µg/mL; in experiment [2], more than 100 µg/mL; in experiment [3], 50 µg/mL (≈ 158 µM); in experiment [4], more than 100 µg/mL; in experiment [5], more than 100 µg/mL; in experiment [6] it was 50 µg/mL (≈ 158 µM). This compound also gave an MIC in experiment [7] of more than 100 µg/mL.
Turning to `C=C1CC(Cn2ncc(=O)[nH]c2=O)(c2ccccc2)OC1=O` (stereo unspecified), the minimal inhibitory concentration (MIC) in experiment [1] is more than 100 µg/mL; in experiment [2], more than 100 µg/mL; in experiment [3], more than 100 µg/mL; in experiment [4] it was more than 100 µg/mL; in experiment [5] it was more than 100 µg/mL; in experiment [6], 5 µg/mL (≈ 16.7 µM). In addition, the MIC in experiment [7] was more than 100 µg/mL.
For the compound `C=C1CC(Cn2nc(C)c(=O)n(CC3(c4ccc(-c5ccccc5)cc4)CC(=C)C(=O)O3)c2=O)(c2ccc(-c3ccccc3)cc2)OC1=O` (stereo unspecified), the minimum inhibitory concentration (MIC) in experiment [1] was more than 100 µg/mL; in experiment [2] it was more than 100 µg/mL; in experiment [3], 25 µg/mL (≈ 38.4 µM); in experiment [4] it was more than 100 µg/mL; in experiment [5], more than 100 µg/mL; in experiment [6], more than 100 µg/mL. Moreover, the MIC in experiment [7] was more than 100 µg/mL.
As to `C=C1CC(Cn2ncc(=O)n(CC3(c4ccc(F)cc4)CC(=C)C(=O)O3)c2=O)(c2ccc(F)cc2)OC1=O` (stereo unspecified), the minimal inhibitory concentration (MIC) was more than 100 µg/mL in experiment [1]; more than 100 µg/mL in experiment [2]; 10 µg/mL (≈ 19.2 µM) in experiment [3]; more than 100 µg/mL in experiment [4]; more than 100 µg/mL in experiment [5]; more than 100 µg/mL in experiment [6]. Besides, the MIC in experiment [7] was more than 100 µg/mL.
For `C=C1CC(Cn2ncc(=O)[nH]c2=O)(c2ccc(-c3ccccc3)cc2)OC1=O` (stereo unspecified), the MIC in experiment [1] is more than 100 µg/mL; in experiment [2] it was more than 100 µg/mL; in experiment [3], 50 µg/mL (≈ 133 µM); in experiment [4], more than 100 µg/mL; in experiment [5], more than 100 µg/mL; in experiment [6], 25 µg/mL (≈ 66.6 µM). The compound also came in with an MIC in experiment [7] of more than 100 µg/mL.
As to `C=C1CC(Cn2ncc(=O)n(CC3(c4ccc(-c5ccccc5)cc4)CC(=C)C(=O)O3)c2=O)(c2ccc(-c3ccccc3)cc2)OC1=O` (stereo unspecified), the minimum inhibitory concentration (MIC) in experiment [1] was 10 µg/mL (≈ 15.7 µM); in experiment [2] it was 10 µg/mL (≈ 15.7 µM); in experiment [3], 25 µg/mL (≈ 39.2 µM); in experiment [4], 50 µg/mL (≈ 78.4 µM); in experiment [5], 50 µg/mL (≈ 78.4 µM); in experiment [6], 25 µg/mL (≈ 39.2 µM). Also, the minimum inhibitory concentration (MIC) in experiment [7] was 25 µg/mL (≈ 39.2 µM).
For the compound `C=C1CC(Cn2nc(C)c(=O)[nH]c2=O)(c2ccccc2)OC1=O` (stereo unspecified), the MIC in experiment [1], in experiment [2], in experiment [3], in experiment [4], in experiment [5] and in experiment [6] was more than 100 µg/mL each time. In experiment [7], this compound came in with a minimum inhibitory concentration (MIC) of more than 100 µg/mL.

The values are drawn from ChEMBL document CHEMBL3045110, “Synthesis and antibacterial evaluation of 6-azapyrimidines with -methylene--(4-substituted phenyl)--butyrolactone pharmacophores” (2011).
